Activity calls are given as the source filed them. No cut-off for these calls is given here.
System: dengue virus type 2
Experiment: Inhibition of N-terminal hexa-histidine tagged Dengue virus 2 NS2B/NS3 protease I30A/L31A mutant expressed in Escherichia coli BL21-Gold (DE3) at 20 uM using fluorogenic AMC-substituted peptide boc-GRR-7-amino-4-methylcoumarin measured every 30 secs for 10 mins by fluorometric assay relative to control
`O=C(Nc1nc2cc(O)c(O)cc2s1)[C@H]1CCCN1C(=O)c1ccccc1` showed an inhibition of 33%.
With `Cc1ccc(S(=O)(=O)N2CCC[C@@H]2C(=O)Nc2nc3ccc([N+](=O)[O-])cc3s2)cc1` the inhibition was 18%.
`O=C(Nc1nc2cc(O)c(O)cc2s1)[C@@H]1CCCN1C(=O)c1ccccc1` showed an inhibition of 28%.
With `COc1cc2nc(NC(=O)C3CCCN3S(=O)(=O)c3ccc(C)cc3)sc2cc1OC` (configuration not stated) the inhibition was “inactive”.
Compound `O=C(Nc1nc2cc(O)c(O)cc2s1)C1CCCCC1` has an inhibition of 20%.
Work on `O=C(Nc1nc2cc(O)c(O)cc2s1)[C@H]1CCCN1S(=O)(=O)c1ccccc1` yielded an inhibition of 21%.
Compound `CC(=O)Nc1ccc2cc(S(=O)(=O)N3CCC[C@H]3C(=O)Nc3nc4cc(O)c(O)cc4s3)ccc2c1` has an inhibition of 29%.
Compound `O=C(Nc1nc2ccc([N+](=O)[O-])cc2s1)[C@@H]1CCCN1C(=O)c1ccccc1` has an inhibition of 41%.
`Cc1ccc(S(=O)(=O)N2CCCC(C(=O)Nc3nc4cc(O)c(O)cc4s3)C2)cc1` (racemic) showed an inhibition of 34%.
With `COc1ccc2cc(Oc3ccccc3C(=O)Nc3nc4cc(OC)c(OC)cc4s3)ccc2c1` the inhibition was “inactive”.
With `COc1cc2nc(NC(=O)C3CCCN3S(=O)(=O)c3ccc(Cl)cc3)sc2cc1OC` (configuration not stated) the inhibition was “inactive”.
`O=C(Nc1nc2cc(O)c(O)cc2s1)[C@H]1CCCN1S(=O)(=O)c1ccc(F)cc1` gave an inhibition of 17%.
In the case of `COc1ccc(S(=O)(=O)N2CCC[C@@H]2C(=O)Nc2nc3cc(OC)c(OC)cc3s2)cc1`, the inhibition is reported as “inactive”.
`O=C(Nc1nc2cc(O)c(O)cc2s1)[C@H]1CCCN1S(=O)(=O)c1cccc([N+](=O)[O-])c1` gave an inhibition of 33%.
Work on `COc1ccc(S(=O)(=O)N2CCC[C@@H]2C(=O)Nc2nc3cc(O)c(O)cc3s2)cc1` yielded an inhibition of 28%.
Work on `O=C(Nc1nc2cc(O)c(O)cc2s1)[C@@H]1CCCN1S(=O)(=O)c1ccccc1` yielded an inhibition of 27%.

System: Zika virus
Experiment: Antiviral activity against Zika virus French Polynesia infected in African green monkey Vero cells assessed as reduction in plaque forming units at 5 uM measured after 96 hrs by crystal violet staining based assay
Type: functional, organism-based
In the case of `COc1ccc2cc(Oc3ccccc3C(=O)Nc3nc4cc(OC)c(OC)cc4s3)ccc2c1`, the Activity is reported as “Active”.

System: Zika virus
Experiment: Antiviral activity against Zika virus infected in human A549 cells assessed as induction of redistribution of the ZIKV Env protein from ER to cytoplasm at 0.5 uM by confocal scanning microscopy
Type: functional, organism-based
With `COc1ccc2cc(Oc3ccccc3C(=O)Nc3nc4cc(OC)c(OC)cc4s3)ccc2c1` the Activity was “Active”.

System: Zika virus
Experiment: Antiviral activity against Zika virus Uganda infected in human A549 cells assessed as reduction in viral RNA at 5 uM measured after 24 to 72 hrs post infection by RT-qPCR analysis
Type: functional, organism-based
In the case of `COc1ccc2cc(Oc3ccccc3C(=O)Nc3nc4cc(OC)c(OC)cc4s3)ccc2c1`, the Activity is reported as “Active”.
For `COc1cc2nc(NC(=O)[C@@H]3CCCN3S(=O)(=O)c3ccc(C)cc3)sc2cc1OC`, the Activity was “inactive”.

Molecular target: Nonstructural protein 3 (Zika virus) (UniProt A0A024AXB9)
Sequence (A0A024AXB9 as listed by the source): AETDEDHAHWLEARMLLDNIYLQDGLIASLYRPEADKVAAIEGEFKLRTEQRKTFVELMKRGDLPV
Experiment: Inhibition of N-terminal hexa-histidine tagged Zika virus NS2B/NS3 protease expressed in Escherichia coli BL21-Gold (DE3) at 20 uM using fluorogenic AMC-substituted peptide boc-GRR-7-amino-4-methylcoumarin measured every 30 secs for 10 mins by fluorometric assay relative to control
`Cc1ccc(S(=O)(=O)N2CCC[C@@H]2C(=O)Nc2nc3ccc([N+](=O)[O-])cc3s2)cc1` showed an inhibition of 31%.
With `COc1cc2nc(NC(=O)C3CCCN3S(=O)(=O)c3ccc(C)cc3)sc2cc1OC` (configuration not stated) the inhibition was “inactive”.
`O=C(Nc1nc2cc(O)c(O)cc2s1)C1CCCCC1` showed an inhibition of 36%.
Compound `O=C(Nc1nc2ccc([N+](=O)[O-])cc2s1)[C@@H]1CCCN1C(=O)c1ccccc1` has an inhibition of 44%.
With `COc1ccc2cc(Oc3ccccc3C(=O)Nc3nc4cc(OC)c(OC)cc4s3)ccc2c1` the inhibition was “inactive”.
With `COc1cc2nc(NC(=O)C3CCCN3S(=O)(=O)c3ccc(Cl)cc3)sc2cc1OC` (configuration not stated) the inhibition was “inactive”.
With `COc1ccc(S(=O)(=O)N2CCC[C@@H]2C(=O)Nc2nc3cc(OC)c(OC)cc3s2)cc1` the inhibition was “inactive”.

System: not listed separately
Experiment: Drug metabolism in rat liver microsomes assessed as formation of (R)-N-(5,6-Dihydroxybenzo[d]thiazol-2-yl)-1-tosylpyrrolidine-2-carboxamide in presence of NADPH generating system by LC-MS/MS analysis
Type: ADME, Microsome
With `COc1cc2nc(NC(=O)[C@@H]3CCCN3S(=O)(=O)c3ccc(C)cc3)sc2cc1OC` the Drug metabolism was “Metabolite_Detected”.

System: Zika virus
Experiment: Antiviral activity against Zika virus infected in African green monkey Vero cells assessed as suppression of viral replication at 10 uM pre-incubated with cells for 1 hr before viral infection and measured after 4 days by RT-qPCR analysis
Type: functional, organism-based
In the case of `COc1ccc2cc(Oc3ccccc3C(=O)Nc3nc4cc(OC)c(OC)cc4s3)ccc2c1`, the Activity is reported as “inactive”.
For `COc1cc2nc(NC(=O)[C@@H]3CCCN3S(=O)(=O)c3ccc(C)cc3)sc2cc1OC`, the Activity was “inactive”.

System: dengue virus type 2
Experiment: Antiviral activity against Dengue virus 2 infected in African green monkey Vero cells assessed as suppression of viral replication at 10 uM pre-incubated with cells for 1 hr before viral infection and measured after 4 days by RT-qPCR analysis
Type: functional, organism-based
For `COc1cc2nc(NC(=O)[C@@H]3CCCN3S(=O)(=O)c3ccc(C)cc3)sc2cc1OC`, the Activity was “Active”.

System: Zika virus
Experiment: Antiviral activity against Zika virus French Polynesia infected in human A549 cells assessed as reduction in viral RNA at 5 uM measured after 24 to 72 hrs post infection by RT-qPCR analysis
Type: functional, organism-based
In the case of `COc1ccc2cc(Oc3ccccc3C(=O)Nc3nc4cc(OC)c(OC)cc4s3)ccc2c1`, the Activity is reported as “Active”.
With `COc1cc2nc(NC(=O)[C@@H]3CCCN3S(=O)(=O)c3ccc(C)cc3)sc2cc1OC` the Activity was “inactive”.

System: Zika virus
Experiment: Antiviral activity against Zika virus Uganda infected in African green monkey Vero cells assessed as reduction in plaque forming units at 5 uM measured after 96 hrs by crystal violet staining based assay
Type: functional, organism-based
With `COc1ccc2cc(Oc3ccccc3C(=O)Nc3nc4cc(OC)c(OC)cc4s3)ccc2c1` the Activity was “Active”.

System: not listed separately
Experiment: Drug metabolism in rat liver microsomes assessed as formation of (R)-N-(5,6-Dimethoxybenzo[d]thiazol-2-yl)-1-((4-(hydroxymethyl) phenyl) sulfonyl)pyrrolidine-2-carboxamide in presence of NADPH generating system by LC-MS/MS analysis
Type: ADME, Microsome
With `COc1cc2nc(NC(=O)[C@@H]3CCCN3S(=O)(=O)c3ccc(C)cc3)sc2cc1OC` the Drug metabolism was “Metabolite_Detected”.

System: not listed separately
Experiment: Drug metabolism in rat liver microsomes assessed as formation of (S)-N-(5,6-Dimethoxybenzo[d]thiazol-2-yl)-1-((4-(hydroxymethyl) phenyl) sulfonyl)pyrrolidine-2-carboxamide in presence of NADPH generating system by LC-MS/MS analysis
Type: ADME, Microsome
In the case of `COc1cc2nc(NC(=O)[C@@H]3CCCN3S(=O)(=O)c3ccc(C)cc3)sc2cc1OC`, the Drug metabolism is reported as “Metabolite_Detected”.

System: not listed separately
Experiment: Drug level in rat liver microsomes treated with (R)-N-(5,6-Dimethoxybenzo[d]thiazol-2-yl)-1-tosylpyrrolidine-2-carboxamide assessed as compound formation in presence of NADPH generating system by LC-MS/MS analysis
Type: ADME, Microsome
With `COc1cc2nc(NC(=O)[C@@H]3CCCN3S(=O)(=O)c3ccc(CO)cc3)sc2cc1OC` the Drug uptake was “Active”.
In the case of `COc1cc2nc(NC(=O)[C@H]3CCCN3S(=O)(=O)c3ccc(CO)cc3)sc2cc1OC`, the Drug uptake is reported as “Active”.

Molecular target: Nonstructural protein 3 (Zika virus, UniProt A0A024AXB9)
Sequence (A0A024AXB9 whole entry): as the sequence (A0A024AXB9 as listed by the source) above
Experiment: Inhibition of N-terminal hexa-histidine tagged Zika virus NS2B/NS3 protease expressed in Escherichia coli BL21-Gold (DE3) using fluorogenic AMC-substituted peptide boc-GRR-7-amino-4-methylcoumarin measured every 30 secs for 10 mins by fluorometric assay
`O=C(Nc1nc2cc(O)c(O)cc2s1)[C@H]1CCCN1C(=O)c1ccccc1` gave an IC50 of 940 nM.
In the case of `O=C(Nc1nc2cc(O)c(O)cc2s1)[C@@H]1CCCN1C(=O)c1ccccc1`, the IC50 is reported as 1550 nM.
`O=C(Nc1nc2cc(O)c(O)cc2s1)[C@H]1CCCN1S(=O)(=O)c1ccccc1` showed an IC50 of 1860 nM.
Work on `CC(=O)Nc1ccc2cc(S(=O)(=O)N3CCC[C@H]3C(=O)Nc3nc4cc(O)c(O)cc4s3)ccc2c1` yielded an IC50 of 2950 nM.
In the case of `Cc1ccc(S(=O)(=O)N2CCCC(C(=O)Nc3nc4cc(O)c(O)cc4s3)C2)cc1` (racemic), the IC50 is reported as 4550 nM.
Work on `O=C(Nc1nc2cc(O)c(O)cc2s1)[C@H]1CCCN1S(=O)(=O)c1ccc(F)cc1` yielded an IC50 of 1030 nM.
Work on `O=C(Nc1nc2cc(O)c(O)cc2s1)[C@H]1CCCN1S(=O)(=O)c1cccc([N+](=O)[O-])c1` yielded an IC50 of 1110 nM.
`COc1ccc(S(=O)(=O)N2CCC[C@@H]2C(=O)Nc2nc3cc(O)c(O)cc3s2)cc1` showed an IC50 of 860 nM.
`O=C(Nc1nc2cc(O)c(O)cc2s1)[C@@H]1CCCN1S(=O)(=O)c1ccccc1` gave an IC50 of 1430 nM.

System: A549
Experiment: Cytotoxicity against human A549 cells assessed as reduction in cell viability up to 5 uM by Presto blue cell viability reagent based assay
With `COc1ccc2cc(Oc3ccccc3C(=O)Nc3nc4cc(OC)c(OC)cc4s3)ccc2c1` the Activity was “Non-Toxic”.
For `COc1cc2nc(NC(=O)[C@@H]3CCCN3S(=O)(=O)c3ccc(C)cc3)sc2cc1OC`, the Activity was “Non-Toxic”.

System: not listed separately
Experiment: Drug level in rat liver microsomes treated with (S)-N-(5,6-Dimethoxybenzo[d]thiazol-2-yl)-1-tosylpyrrolidine-2-carboxamide assessed as compound formation in presence of NADPH generating system by LC-MS/MS analysis
Type: ADME, Microsome
With `COc1cc2nc(NC(=O)[C@@H]3CCCN3S(=O)(=O)c3ccc(CO)cc3)sc2cc1OC` the Drug uptake was “Active”.
With `COc1cc2nc(NC(=O)[C@H]3CCCN3S(=O)(=O)c3ccc(CO)cc3)sc2cc1OC` the Drug uptake was “Active”.

System: not listed separately
Experiment: Drug metabolism in rat liver microsomes assessed as formation of (S)-1-Benzoyl-N-(5,6-dihydroxybenzo[d]thiazol-2-yl)pyrrolidine-2-carboxamide in presence of NADPH generating system by LC-MS/MS analysis
Type: ADME, Microsome
With `COc1cc2nc(NC(=O)[C@@H]3CCCN3S(=O)(=O)c3ccc(C)cc3)sc2cc1OC` the Drug metabolism was “Metabolite_Detected”.

— ChEMBL document CHEMBL4334527, “Proline-Based Allosteric Inhibitors of Zika and Dengue Virus NS2B/NS3 Proteases” (J Med Chem, 2019)
